Assay in all cases: AK assay 384-well format, Prestwick library screening
The subject of one assay is E. coli. The class given is cell-based, Escherichia coli. The note with it: 50 μM final drug concentration; for fold induction at 50 µM: Escherichia coli, 3 h.
Assay [1] deals with S. aureus strain USA300-0114. The assay is classed as cell-based, Staphylococcus aureus. The note with it: 50 μM final drug concentration; for fold induction at 50 µM: Staphylococcus aureus, USA300, 3 h.
The next assay deals with E. faecium. The assay is classed as cell-based, Enterococcus faecium. The following applies: 50 μM final drug concentration; for fold induction at 50 µM: Enterococcus faecium, 3 h.
In a further assay the test system is K. pneumoniae. The class given is cell-based, Klebsiella pneumoniae. The following applies: 50 μM final drug concentration; for fold induction at 50 µM: Klebsiella pneumoniae, 3 h.
The next assay has as its system P. aeruginosa. The assay is classed as cell-based, Pseudomonas aeruginosa. The following applies: 50 μM final drug concentration; for fold induction at 50 µM: Pseudomonas aeruginosa, 3 h.
Assay [2] concerns A. baumannii strain 98-37-09. The class given is cell-based, Acinetobacter baumannii. The note with it: 50 μM final drug concentration; for fold induction at 50 µM: Acinetobacter baumannii, 983709, 3 h.
The next assay relates to E. cloacae. The assay is classed as cell-based, Enterobacter cloacae. The following applies: 50 μM final drug concentration; for fold induction at 50 µM: Enterobacter cloacae, 3 h.
[3] abbreviates: planktonic E. coli, positive cutoff 3-fold increase, read-out: AK-based Prestwick library screening result, E. coli (fold increase in extracellular AK activity).
The mark [4] stands for this setting: planktonic S. aureus, positive cutoff 3-fold increase, read-out: AK-based Prestwick library screening result, S. aureus (fold increase in extracellular AK activity).
Where [5] appears, read: planktonic E. faecium, positive cutoff 3-fold increase, read-out: AK-based Prestwick library screening result, E. faecium (fold increase in extracellular AK activity).
[6] abbreviates: planktonic K. pneumoniae, positive cutoff 3-fold increase, read-out: AK-based Prestwick library screening result, K. pneumoniae (fold increase in extracellular AK activity).
Setting [7] is: planktonic P. aeruginosa, positive cutoff 3-fold increase, read-out: AK-based Prestwick library screening result, P. aeruginosa (fold increase in extracellular AK activity).
Setting [8] is: planktonic A. baumannii, positive cutoff 3-fold increase, read-out: AK-based Prestwick library screening result, A. baumannii (fold increase in extracellular AK activity).
Setting [9] is: planktonic E. cloacae, positive cutoff 3-fold increase, read-out: AK-based Prestwick library screening result, E. cloacae (fold increase in extracellular AK activity).
Setting [10] is: planktonic E. coli, […], read-out: AK-based Prestwick library screening result, E. coli (fold increase in extracellular AK activity).

Structures are written as SMILES. Where a name gives a salt, the structure may show the parent alone. Read-outs that look alike come from different tables or passages of the source.

On to `Nc1ccn([C@H]2CC[C@@H](CO)O2)c(=O)n1` [Zalcitabine], for which the fold induction at 50 µM in the assay with E. coli (setting [3]) was determined as 1.3; in assay [1] (setting [4]), 1.1; with E. faecium (setting [5]) it was 1.1; in the assay with K. pneumoniae (setting [6]), 1.1; with P. aeruginosa (setting [7]), 1; in assay [2] (setting [8]), 1.2. Besides, in the assay on E. cloacae (setting [9]), the fold induction at 50 µM turned out to be 1.8.

In the case of `CCCOc1ccccc1-c1nc2nn[nH]c2c(=O)[nH]1` [Zaprinast], the fold induction at 50 µM in the assay with E. coli (planktonic E. coli, cutoff for positive-scoring molecules 3-fold increase, read-out: AK-based Prestwick Library Screening Results, E. coli (increase in extracellular AK activity)) was determined as 0.7; in assay [1] (planktonic S. aureus, cutoff for positive-scoring molecules 3-fold increase, read-out: AK-based Prestwick Library Screening Results, S. aureus (increase in extracellular AK activity)), 0.6; in the assay with E. faecium (planktonic E. faecium, cutoff for positive-scoring molecules 3-fold increase, read-out: AK-based Prestwick Library Screening Results, E. faecium (increase in extracellular AK activity)) it was 1; in the assay on K. pneumoniae (planktonic K. pneumoniae, cutoff for positive-scoring molecules 3-fold increase, read-out: AK-based Prestwick Library Screening Results, K. pneumoniae (increase in extracellular AK activity)), 0.5; in the assay on P. aeruginosa (planktonic P. aeruginosa, cutoff for positive-scoring molecules 3-fold increase, read-out: AK-based Prestwick Library Screening Results, P. aeruginosa (increase in extracellular AK activity)) it was 0.7; in assay [2] (planktonic A. baumannii, cutoff for positive-scoring molecules 3-fold increase, read-out: AK-based Prestwick Library Screening Results, A. baumannii (increase in extracellular AK activity)), 0.6. The fold induction at 50 µM with E. cloacae (planktonic E. cloacae, cutoff for positive-scoring molecules 3-fold increase, read-out: AK-based Prestwick Library Screening Results, E. cloacae (increase in extracellular AK activity)) is 0.8.

In the case of `COc1cc(-c2ccc(=O)[nH]n2)ccc1OC(F)F` [Zardaverine], the fold induction at 50 µM was determined as 0.6 in the assay on E. coli (setting [10]); 0.6 in assay [1] (setting [4]); 1 in the assay on E. faecium (setting [5]); 0.7 in the assay with K. pneumoniae (setting [6]); 0.7 in the assay on P. aeruginosa (setting [7]); 0.7 in assay [2] (setting [8]). In addition, the fold induction at 50 µM with E. cloacae (setting [9]) amounted to 0.9.

Take `Cc1cn([C@H]2C[C@H](N=[N+]=[N-])[C@@H](CO)O2)c(=O)[nH]c1=O` [Zidovudine, AZT]: the “AK-based Prestwick Library Screening Results, E. coli (increase in extracellular AK activity)” value in the assay on E. coli (planktonic E. coli, cutoff for positive-scoring molecules 3-fold increase) is 2.1. Further, the “AK-based Prestwick Library Screening Results, S. aureus (increase in extracellular AK activity)” value in assay [1] (planktonic S. aureus, cutoff for positive-scoring molecules 3-fold increase) turned out to be 0.6. Further, the “AK-based Prestwick Library Screening Results, E. faecium (increase in extracellular AK activity)” value in the assay on E. faecium (planktonic E. faecium, cutoff for positive-scoring molecules 3-fold increase) was determined as 0.9. Besides, the “AK-based Prestwick Library Screening Results, K. pneumoniae (increase in extracellular AK activity)” value in the assay with K. pneumoniae (planktonic K. pneumoniae, cutoff for positive-scoring molecules 3-fold increase) is 1.2. Moreover, in the assay on P. aeruginosa (planktonic P. aeruginosa, cutoff for positive-scoring molecules 3-fold increase), the “AK-based Prestwick Library Screening Results, P. aeruginosa (increase in extracellular AK activity)” value is 0.6. Moreover, in assay [2] (planktonic A. baumannii, cutoff for positive-scoring molecules 3-fold increase), the “AK-based Prestwick Library Screening Results, A. baumannii (increase in extracellular AK activity)” value was determined as 1.8. For the same compound, the “AK-based Prestwick Library Screening Results, E. cloacae (increase in extracellular AK activity)” value in the assay on E. cloacae (planktonic E. cloacae, cutoff for positive-scoring molecules 3-fold increase) is reported as 4.2.

In the case of `CN(C)C/C=C(/c1ccc(Br)cc1)c1cccnc1` [Zimelidine dihydrochloride monohydrate], the fold induction at 50 µM is 0.7 in the assay on E. coli (384-well format, cutoff for positive-scoring molecules 3-fold increase, read-out: AK-based Prestwick Library Screening Results, E. coli (increase in extracellular AK activity)); 0.8 in assay [1] (384-well format, cutoff for positive-scoring molecules 3-fold increase, read-out: AK-based Prestwick Library Screening Results, S. aureus (increase in extracellular AK activity)); 0.9 with E. faecium (384-well format, cutoff for positive-scoring molecules 3-fold increase, read-out: AK-based Prestwick Library Screening Results, E. faecium (increase in extracellular AK activity)); 0.5 in the assay on K. pneumoniae (384-well format, cutoff for positive-scoring molecules 3-fold increase, read-out: AK-based Prestwick Library Screening Results, K. pneumoniae (increase in extracellular AK activity)); 0.6 in the assay with P. aeruginosa (384-well format, cutoff for positive-scoring molecules 3-fold increase, read-out: AK-based Prestwick Library Screening Results, P. aeruginosa (increase in extracellular AK activity)); 0.7 in assay [2] (384-well format, cutoff for positive-scoring molecules 3-fold increase, read-out: AK-based Prestwick Library Screening Results, A. baumannii (increase in extracellular AK activity)). Moreover, the fold induction at 50 µM in the assay with E. cloacae (384-well format, cutoff for positive-scoring molecules 3-fold increase, read-out: AK-based Prestwick Library Screening Results, E. cloacae (increase in extracellular AK activity)) was 0.8.

Turning to `Cc1cc(CC(=O)O)n(C)c1C(=O)c1ccc(Cl)cc1` [Zomepirac sodium salt], the fold induction at 50 µM in the assay with E. coli (cutoff for positive-scoring molecules 3-fold increase, read-out: AK-based Prestwick Library Screening Results, E. coli (fold increase in extracellular AK activity)) amounted to 1.1; in assay [1] (cutoff for positive-scoring molecules 3-fold increase, read-out: AK-based Prestwick Library Screening Results, S. aureus (fold increase in extracellular AK activity)), 0.9; in the assay on E. faecium (cutoff for positive-scoring molecules 3-fold increase, read-out: AK-based Prestwick Library Screening Results, E. faecium (fold increase in extracellular AK activity)), 1.1; in the assay on K. pneumoniae (cutoff for positive-scoring molecules 3-fold increase, read-out: AK-based Prestwick Library Screening Results, K. pneumoniae (fold increase in extracellular AK activity)), 1; in the assay on P. aeruginosa (cutoff for positive-scoring molecules 3-fold increase, read-out: AK-based Prestwick Library Screening Results, P. aeruginosa (fold increase in extracellular AK activity)), 0.9; in assay [2] (cutoff for positive-scoring molecules 3-fold increase, read-out: AK-based Prestwick Library Screening Results, A. baumannii (fold increase in extracellular AK activity)), 1.1. For the same compound, the fold induction at 50 µM in the assay with E. cloacae (cutoff for positive-scoring molecules 3-fold increase, read-out: AK-based Prestwick Library Screening Results, E. cloacae (fold increase in extracellular AK activity)) was 1.6.

For the compound `OCCN1CCN(CC/C=C2/c3ccccc3Sc3ccc(Cl)cc32)CC1` [Zuclopenthixol hydrochloride], the fold induction at 50 µM came out at 1.2 in the assay on E. coli (setting [3]); 0.7 in assay [1] (setting [4]); 1 in the assay with E. faecium (setting [5]); 1 in the assay with K. pneumoniae (setting [6]); 0.9 in the assay with P. aeruginosa (setting [7]); 1.9 in assay [2] (setting [8]). The fold induction at 50 µM in the assay with E. cloacae (setting [9]) worked out at 1.3.

With `CC1=C2[C@H]3OC(=O)[C@@H](C)[C@@H]3CC[C@@]2(C)C=CC1=O` [alpha-Santonin], the fold induction at 50 µM is 0.8 in the assay on E. coli (setting [10]); 0.9 in assay [1] (planktonic S. aureus, […], read-out: AK-based Prestwick library screening result, S. aureus (fold increase in extracellular AK activity)); 1 with E. faecium (planktonic E. faecium, […], read-out: AK-based Prestwick library screening result, E. faecium (fold increase in extracellular AK activity)); 0.7 with K. pneumoniae (planktonic K. pneumoniae, […], read-out: AK-based Prestwick library screening result, K. pneumoniae (fold increase in extracellular AK activity)); 0.9 with P. aeruginosa (planktonic P. aeruginosa, […], read-out: AK-based Prestwick library screening result, P. aeruginosa (fold increase in extracellular AK activity)); 0.8 in assay [2] (planktonic A. baumannii, […], read-out: AK-based Prestwick library screening result, A. baumannii (fold increase in extracellular AK activity)). The fold induction at 50 µM with E. cloacae (planktonic E. cloacae, […], read-out: AK-based Prestwick library screening result, E. cloacae (fold increase in extracellular AK activity)) came to 0.9.

Regarding `CC[N+]1(C)[C@@H]2CC[C@H]1CC(OC(=O)[C@@H]1CC[C@@](C(=O)OC3C[C@H]4CC[C@@H](C3)[N+]4(C)CC)(c3ccccc3)c3ccccc31)C2.[Cl-].[Cl-]` (stereo partly drawn) [beta-Belladonnine dichloroethylate], the “AK-based Prestwick Library Screening Results, E. coli (fold increase in extracellular AK activity)” value in the assay with E. coli (planktonic, […]) is given as 1.2. Further, in assay [1] (planktonic, […]), the “AK-based Prestwick Library Screening Results, S. aureus (fold increase in extracellular AK activity)” value turned out to be 1.3. Moreover, in the assay on E. faecium (planktonic, […]), the “AK-based Prestwick Library Screening Results, E. faecium (fold increase in extracellular AK activity)” value worked out at 1.0. In the assay with K. pneumoniae (planktonic, […]), the “AK-based Prestwick Library Screening Results, K. pneumoniae (fold increase in extracellular AK activity)” value was found to be 0.9. In addition, the “AK-based Prestwick Library Screening Results, P. aeruginosa (fold increase in extracellular AK activity)” value in the assay with P. aeruginosa (planktonic, […]) is 1.2. The “AK-based Prestwick Library Screening Results, A. baumannii (fold increase in extracellular AK activity)” value in assay [2] (planktonic, […]) is on record as 1.0. Moreover, in the assay with E. cloacae (planktonic, […]), the “AK-based Prestwick Library Screening Results, E. cloacae (fold increase in extracellular AK activity)” value is given as 1.3.

(Values after patent US10004701B2, “Methods and compositions for treating infection” (UNIVERSITY OF ROCHESTER, priority 2012, dated 2018).)
